{"source": "paper PMC5218480", "about": "(PLoS ONE, 2017)", "system": "MV-4-11 cells", "assay": "Gene expression microarray analysis (Affymetrix PrimeView) and GSEA", "type": "cell-based, human", "parameters": "RFU PODN (11730768_x_at) / Fold change /veh PODN (11730768_x_at) / RFU LINC00158 (11744669_a_at) / Fold change /veh LINC00158 (11744669_a_at) / RFU DUSP10 (11751237_a_at) / Fold change /veh DUSP10 (11751237_a_at) / RFU ID3 (11757404_x_at) / Fold change /veh ID3 (11757404_x_at) / RFU PLEKHG5 (11737974_s_at) / Fold change /veh PLEKHG5 (11737974_s_at) / RFU LRRC4B (11730491_at) / Fold change /veh LRRC4B (11730491_at) / RFU GIMAP4 (11747438_a_at) / Fold change /veh GIMAP4 (11747438_a_at) / RFU KRT8 (11758183_x_at) / Fold change /veh KRT8 (11758183_x_at) / RFU CNN1 (11734310_a_at) / Fold change /veh CNN1 (11734310_a_at) / RFU VPS37D (11726825_at) / Fold change /veh VPS37D (11726825_at) / RFU C10orf10 (11716522_x_at) / Fold change /veh C10orf10 (11716522_x_at) / RFU KIR2DL2 /// KIR2DL4 /// KIR2DL5A /// KIR2DL5B /// KIR2DS1 /// KIR2DS2 /// KIR2DS3 /// KIR2DS4 /// KIR3DL3 /// KIR3DL3 /// KIR3DS1 (11738374_at) / Fold change /veh KIR2DL2 /// KIR2DL4 /// KIR2DL5A /// KIR2DL5B /// KIR2DS1 /// KIR2DS2 /// KIR2DS3 /// KIR2DS4 /// KIR3DL3 /// KIR3DL3 /// KIR3DS1 (11738374_at) / RFU C1QL1 (11718748_at) / Fold change /veh C1QL1 (11718748_at) / RFU TMPRSS4 (11747572_a_at) / Fold change /veh TMPRSS4 (11747572_a_at) / RFU HAMP (11756126_x_at) / Fold change /veh HAMP (11756126_x_at) / RFU RNFT2 (11725882_a_at) / Fold change /veh RNFT2 (11725882_a_at) / RFU NR4A2 (11747474_a_at) / Fold change /veh NR4A2 (11747474_a_at) / RFU ABCC12 (11746883_a_at) / Fold change /veh ABCC12 (11746883_a_at) / RFU TMEM136 (11760407_x_at) / Fold change /veh TMEM136 (11760407_x_at) / RFU CLDN22 /// WWC2 (11732394_at) / Fold change /veh CLDN22 /// WWC2 (11732394_at) / RFU HLA-DPB1 (11760878_x_at) / Fold change /veh HLA-DPB1 (11760878_x_at) / RFU SPINT1 (11716480_a_at) / Fold change /veh SPINT1 (11716480_a_at) / RFU GAP43 (11754022_s_at) / Fold change /veh GAP43 (11754022_s_at) / RFU A4GNT (11735810_at) / Fold change /veh A4GNT (11735810_at) / RFU PRB3 (11715151_x_at) / Fold change /veh PRB3 (11715151_x_at) / RFU TUBB4B (11761932_at) / Fold change /veh TUBB4B (11761932_at) / RFU CAPN14 (11732068_a_at) / Fold change /veh CAPN14 (11732068_a_at) / RFU TMCC2 (11721928_a_at) / Fold change /veh TMCC2 (11721928_a_at) / RFU IRGQ (11745062_a_at) / Fold change /veh IRGQ (11745062_a_at) / RFU FAM174B (11720279_a_at) / Fold change /veh FAM174B (11720279_a_at) / RFU TMPRSS4 (11748680_a_at) / Fold change /veh TMPRSS4 (11748680_a_at) / RFU FAM212B (11763350_a_at) / Fold change /veh FAM212B (11763350_a_at) / RFU PLEKHG5 (11743358_a_at) / Fold change /veh PLEKHG5 (11743358_a_at) / RFU ZSCAN30 (11745921_a_at) / Fold change /veh ZSCAN30 (11745921_a_at) / RFU CMKLR1 (11741424_a_at) / Fold change /veh CMKLR1 (11741424_a_at) / RFU LOC101060620 /// MAPK8IP1 (11723275_at) / Fold change /veh LOC101060620 /// MAPK8IP1 (11723275_at) / RFU SPTSSB (11747773_x_at) / Fold change /veh SPTSSB (11747773_x_at) / RFU PRSS12 (11739890_at) / Fold change /veh PRSS12 (11739890_at) / RFU BIN1 (11741810_x_at) / Fold change /veh BIN1 (11741810_x_at) / RFU WNT11 (11732464_a_at) / Fold change /veh WNT11 (11732464_a_at) / RFU C10orf10 (11716521_a_at) / Fold change /veh C10orf10 (11716521_a_at) / RFU C5orf56 (11738089_at) / Fold change /veh C5orf56 (11738089_at) / RFU CYB561 (11721691_x_at) / Fold change /veh CYB561 (11721691_x_at) / RFU ANKRD19P (11752326_a_at) / Fold change /veh ANKRD19P (11752326_a_at) / RFU OR2T12 /// OR2T33 /// OR2T8 (11738714_s_at) / Fold change /veh OR2T12 /// OR2T33 /// OR2T8 (11738714_s_at) / RFU VCAN (11748164_a_at) / Fold change /veh VCAN (11748164_a_at) / RFU JSRP1 (11732532_at) / Fold change /veh JSRP1 (11732532_at) / RFU KRTAP10-11 (11738290_x_at) / Fold change /veh KRTAP10-11 (11738290_x_at) / RFU MYO3A (11730013_a_at) / Fold change /veh MYO3A (11730013_a_at) / RFU EBF3 (11725865_a_at) / Fold change /veh EBF3 (11725865_a_at) / RFU CAMK2N1 (11719241_x_at) / Fold change /veh CAMK2N1 (11719241_x_at) / RFU C5orf56 (11738088_a_at) / Fold change /veh C5orf56 (11738088_a_at) / RFU OLFML3 (11715873_a_at) / Fold change /veh OLFML3 (11715873_a_at) / RFU LOC100653217 /// NTM (11731650_a_at) / Fold change /veh LOC100653217 /// NTM (11731650_a_at) / RFU MAPK11 (11762145_a_at) / Fold change /veh MAPK11 (11762145_a_at) / RFU FIZ1 (11724087_x_at) / Fold change /veh FIZ1 (11724087_x_at) / RFU OASL (11726364_x_at) / Fold change /veh OASL (11726364_x_at) / RFU SOX15 (11748057_x_at) / Fold change /veh SOX15 (11748057_x_at) / RFU CD79A (11719716_a_at) / Fold change /veh CD79A (11719716_a_at) / RFU HIST1H1D (11736915_at) / Fold change /veh HIST1H1D (11736915_at) / RFU CASKIN2 (11723855_a_at) / Fold change /veh CASKIN2 (11723855_a_at) / RFU LOC730098 (11760151_x_at) / Fold change /veh LOC730098 (11760151_x_at) / RFU OR4N2 (11742367_at) / Fold change /veh OR4N2 (11742367_at) / RFU PRRT2 (11749266_a_at) / Fold change /veh PRRT2 (11749266_a_at) / RFU SNX32 (11753110_a_at) / Fold change /veh SNX32 (11753110_a_at) / RFU CDHR5 (11726645_a_at) / Fold change /veh CDHR5 (11726645_a_at) / RFU RCAN1 (11760418_a_at) / Fold change /veh RCAN1 (11760418_a_at) / RFU FAM167A (11723789_a_at) / Fold change /veh FAM167A (11723789_a_at) / RFU FAM26E (11764081_at) / Fold change /veh FAM26E (11764081_at) / RFU ISYNA1 (11749810_s_at) / Fold change /veh ISYNA1 (11749810_s_at) / RFU ACY1 (11761880_at) / Fold change /veh ACY1 (11761880_at) / RFU 11764098_at / Fold change /veh 11764098_at / RFU SAMD14 (11745864_x_at) / Fold change /veh SAMD14 (11745864_x_at) / RFU NPB (11741838_a_at) / Fold change /veh NPB (11741838_a_at) / RFU TMPRSS6 (11731388_a_at) / Fold change /veh TMPRSS6 (11731388_a_at) / RFU KRTAP10-2 (11738614_at) / Fold change /veh KRTAP10-2 (11738614_at) / RFU ARHGAP8 /// PRR5-ARHGAP8 (11727945_x_at) / Fold change /veh ARHGAP8 /// PRR5-ARHGAP8 (11727945_x_at) / RFU KRTAP5-7 /// NADSYN1 (11734609_at) / Fold change /veh KRTAP5-7 /// NADSYN1 (11734609_at) / RFU RASL12 (11751679_a_at) / Fold change /veh RASL12 (11751679_a_at) / RFU CDKN2B (11736163_a_at) / Fold change /veh CDKN2B (11736163_a_at) / RFU PRF1 (11729649_at) / Fold change /veh PRF1 (11729649_at) / RFU, ZNF638 /// ZNF638-IT1 / Fold change vs veh, ZNF638 /// ZNF638-IT1 / RFU, PANK3 / Fold change vs veh, PANK3 / RFU, SH3YL1 / Fold change vs veh, SH3YL1 / RFU, ZEB2 / Fold change vs veh, ZEB2 / RFU, NRIP1 / Fold change vs veh, NRIP1 / RFU, PTTG1IP / Fold change vs veh, PTTG1IP / RFU, CAPN2 / Fold change vs veh, CAPN2 / RFU, MED14 / Fold change vs veh, MED14 / RFU, SNORA58 / Fold change vs veh, SNORA58 / RFU, C1orf63 / Fold change vs veh, C1orf63 / RFU, LRRFIP1 / Fold change vs veh, LRRFIP1 / RFU, NDUFAF7 / Fold change vs veh, NDUFAF7 / RFU, SLC12A2 / Fold change vs veh, SLC12A2 / RFU, IBTK / Fold change vs veh, IBTK / RFU, ESF1 / Fold change vs veh, ESF1 / Fold change vs veh, TMEM50B / RFU, TAOK1 / Fold change vs veh, TAOK1 / RFU, ACBD3 / Fold change vs veh, ACBD3 / RFU, TMA16 / Fold change vs veh, TMA16 / RFU, RWDD3 / Fold change vs veh, RWDD3 / RFU, BCAT1 / Fold change vs veh, BCAT1 / RFU, EDEM3 / Fold change vs veh, EDEM3 / RFU, TMEM33 / Fold change vs veh, TMEM33 / RFU, WDR75 / Fold change vs veh, WDR75 / RFU, AHCTF1 / Fold change vs veh, AHCTF1 / RFU, TFRC / Fold change vs veh, TFRC / RFU, ZDHHC17 / Fold change vs veh, ZDHHC17 / RFU, NOM1 / Fold change vs veh, NOM1 / RFU, ARL8B / Fold change vs veh, ARL8B / RFU, ZBTB11 / Fold change vs veh, ZBTB11 / RFU, TAMM41 / Fold change vs veh, TAMM41 / RFU, KIAA1704 /// LOC100996395 / Fold change vs veh, KIAA1704 /// LOC100996395 / RFU, ING1 / Fold change vs veh, ING1 / RFU, TRMT61B / Fold change vs veh, TRMT61B / RFU, FUBP3 / Fold change vs veh, FUBP3 / RFU, TP53 / Fold change vs veh, TP53 / RFU, TNKS2 / Fold change vs veh, TNKS2 / RFU, ZFP14 / Fold change vs veh, ZFP14 / RFU, ACTR2 / Fold change vs veh, ACTR2 / RFU, PPP3R1 / Fold change vs veh, PPP3R1 / RFU, PIK3R1 / Fold change vs veh, PIK3R1 / RFU, HNRNPA1 / Fold change vs veh, HNRNPA1 / RFU, RNF170 / Fold change vs veh, RNF170 / RFU, ZNF28 / Fold change vs veh, ZNF28 / RFU, RNGTT / Fold change vs veh, RNGTT / RFU, OGT / Fold change vs veh, OGT / RFU, BRD1 / Fold change vs veh, BRD1 / RFU, MARS / Fold change vs veh, MARS / RFU, ZNF655 / Fold change vs veh, ZNF655 / RFU, FAHD1 / Fold change vs veh, FAHD1 / RFU, BDP1 / Fold change vs veh, BDP1 / RFU, LRRCC1 / Fold change vs veh, LRRCC1 / RFU, ARID1A / Fold change vs veh, ARID1A / RFU, ZNF146 / Fold change vs veh, ZNF146 / RFU, ZNF330 / Fold change vs veh, ZNF330 / RFU, GPN3 / Fold change vs veh, GPN3 / RFU, C9orf123 / Fold change vs veh, C9orf123 / RFU, N4BP2L2 / Fold change vs veh, N4BP2L2 / RFU, ARFIP1 / Fold change vs veh, ARFIP1 / RFU, FAM179B / Fold change vs veh, FAM179B / RFU, BCL10 / Fold change vs veh, BCL10 / RFU, UHRF1BP1L / Fold change vs veh, UHRF1BP1L / RFU, BET1 / Fold change vs veh, BET1 / RFU, CNOT2 / Fold change vs veh, CNOT2 / RFU, ZNF268 / Fold change vs veh, ZNF268 / Fold change vs veh, ZNF507 / RFU, DGCR2 / Fold change vs veh, DGCR2 / RFU, WDSUB1 / Fold change vs veh, WDSUB1 / Fold change vs veh, HSP90B1 /// MIR3652 / RFU, ADSS / Fold change vs veh, ADSS / RFU, GK / Fold change vs veh, GK / RFU, ZNF148 / Fold change vs veh, ZNF148 / RFU, TAF9 / Fold change vs veh, TAF9 / RFU, SLC1A5 / Fold change vs veh, SLC1A5 / RFU, SLMO2 / Fold change vs veh, SLMO2 / RFU, ABCC4 / Fold change vs veh, ABCC4 / RFU, LOC101060439 /// RAP1B / Fold change vs veh, LOC101060439 /// RAP1B / RFU, RFX7 / Fold change vs veh, RFX7 / RFU, GTPBP10 / Fold change vs veh, GTPBP10 / RFU, CNEP1R1 / Fold change vs veh, CNEP1R1 / RFU, BIVM-ERCC5 /// ERCC5 / Fold change vs veh, BIVM-ERCC5 /// ERCC5 / RFU, ILF3 / Fold change vs veh, ILF3 / RFU 11762660_at / Fold change /veh 11762660_at / RFU VCAN (11757783_s_at) / Fold change /veh VCAN (11757783_s_at) / RFU DDX43 (11728927_at) / Fold change /veh DDX43 (11728927_at) / RFU KRT8 (11758188_x_at) / Fold change /veh KRT8 (11758188_x_at) / RFU NKD1 (11759106_at) / Fold change /veh NKD1 (11759106_at) / RFU SRD5A1 (11742802_a_at) / Fold change /veh SRD5A1 (11742802_a_at) / RFU TPSAB1 /// TPSB2 (11721975_s_at) / Fold change /veh TPSAB1 /// TPSB2 (11721975_s_at) / RFU GSTM3 (11746129_a_at) / Fold change /veh GSTM3 (11746129_a_at) / RFU IL23R (11737362_x_at) / Fold change /veh IL23R (11737362_x_at) / RFU TMEM51 (11727254_a_at) / Fold change /veh TMEM51 (11727254_a_at) / RFU PIWIL2 (11732686_x_at) / Fold change /veh PIWIL2 (11732686_x_at) / RFU ORM1 (11744905_x_at) / Fold change /veh ORM1 (11744905_x_at) / RFU CCDC152 (11743942_at) / Fold change /veh CCDC152 (11743942_at) / RFU ECM1 (11717891_a_at) / Fold change /veh ECM1 (11717891_a_at) / RFU IL23R (11748794_a_at) / Fold change /veh IL23R (11748794_a_at) / RFU TNFAIP8L3 (11732012_x_at) / Fold change /veh TNFAIP8L3 (11732012_x_at) / RFU MBOAT4 (11741988_at) / Fold change /veh MBOAT4 (11741988_at) / RFU 11764193_at / Fold change /veh 11764193_at / RFU TMEM53 (11763286_at) / Fold change /veh TMEM53 (11763286_at) / RFU MAGEB2 (11727129_at) / Fold change /veh MAGEB2 (11727129_at) / RFU TMEM200A (11744735_a_at) / Fold change /veh TMEM200A (11744735_a_at) / RFU CCDC152 (11751479_a_at) / Fold change /veh CCDC152 (11751479_a_at) / RFU FAM211A (11726209_a_at) / Fold change /veh FAM211A (11726209_a_at) / RFU RGS16 (11746705_a_at) / Fold change /veh RGS16 (11746705_a_at) / RFU VCAN (11755009_s_at) / Fold change /veh VCAN (11755009_s_at) / RFU RHOB (11743442_s_at) / Fold change /veh RHOB (11743442_s_at) / RFU RGS16 (11720943_a_at) / Fold change /veh RGS16 (11720943_a_at) / RFU RGS16 (11720944_at) / Fold change /veh RGS16 (11720944_at) / RFU, VPS4B / Fold change vs veh, VPS4B / RFU, CREB1 / Fold change vs veh, CREB1 / RFU, DNAJC13 / Fold change vs veh, DNAJC13 / RFU, GNAQ / Fold change vs veh, GNAQ / RFU, CDK5R1 / Fold change vs veh, CDK5R1 / RFU, ZRANB3 / Fold change vs veh, ZRANB3 / RFU, CUL4A / Fold change vs veh, CUL4A / RFU, CCNY / Fold change vs veh, CCNY / RFU, UFL1 / Fold change vs veh, UFL1 / RFU, COG3 / Fold change vs veh, COG3 / RFU, DIAPH2 / Fold change vs veh, DIAPH2 / RFU, SKA2 / Fold change vs veh, SKA2 / RFU, AFF3 / Fold change vs veh, AFF3 / RFU, LMF1 / Fold change vs veh, LMF1 / RFU, IPO11 / Fold change vs veh, IPO11 / RFU, DFFB / Fold change vs veh, DFFB / RFU, FOXP1 / Fold change vs veh, FOXP1 / RFU, CARD8 / Fold change vs veh, CARD8 / RFU, STRN3 / Fold change vs veh, STRN3 / RFU, ADK / Fold change vs veh, ADK / RFU, RASSF2 / Fold change vs veh, RASSF2 / RFU, WIPF1 / Fold change vs veh, WIPF1 / RFU, LARP1B / Fold change vs veh, LARP1B / RFU, RASA1 / Fold change vs veh, RASA1 / RFU, RB1 / Fold change vs veh, RB1 / RFU, PPFIA1 / Fold change vs veh, PPFIA1 / RFU, MAT2A / Fold change vs veh, MAT2A / RFU, CCT5 / Fold change vs veh, CCT5 / RFU, WDR92 / Fold change vs veh, WDR92 / RFU, CUX1 / Fold change vs veh, CUX1 / RFU, TTC7A / Fold change vs veh, TTC7A / RFU, TMEM135 / Fold change vs veh, TMEM135 / RFU, DEPTOR / Fold change vs veh, DEPTOR / RFU, CPM / Fold change vs veh, CPM / RFU, DNAJB6 / Fold change vs veh, DNAJB6 / RFU, CACNA2D3 / Fold change vs veh, CACNA2D3 / RFU, DTX4 / Fold change vs veh, DTX4 / RFU, TFCP2 / Fold change vs veh, TFCP2 / RFU, GMCL1 /// GMCL1P1 / Fold change vs veh, GMCL1 /// GMCL1P1 / RFU, AEBP2 / Fold change vs veh, AEBP2 / RFU, SNHG1 /// SNORD22 /// SNORD25 /// SNORD26 /// SNORD27 /// SNORD28 /// SNORD29 /// SNORD31 / Fold change vs veh, SNHG1 /// SNORD22 /// SNORD25 /// SNORD26 /// SNORD27 /// SNORD28 /// SNORD29 /// SNORD31 / Fold change (Aza/veh), C12orf56 (ProbeSet 11735607_a_at) / Fold change (ACY-1035/veh), C12orf56 (ProbeSet 11735607_a_at) / Fold change (Aza/veh), FGFR1OP (ProbeSet 11751329_s_at) / Fold change (ACY-1035/veh), FGFR1OP (ProbeSet 11751329_s_at) / Fold change (Aza/veh), VPS36 (ProbeSet 11739960_a_at) / Fold change (ACY-1035/veh), VPS36 (ProbeSet 11739960_a_at) / RFU SYPL1 (11715823_x_at) / Fold change /veh SYPL1 (11715823_x_at) / RFU IGFBP7 (11715501_s_at) / Fold change /veh IGFBP7 (11715501_s_at) / RFU REEP3 (11722064_at) / Fold change /veh REEP3 (11722064_at) / RFU IGLL1 (11728026_x_at) / Fold change /veh IGLL1 (11728026_x_at): dose or concentration left out as unconfirmed", "conditions": "ProbeSet 11749551_a_at; LIST B"}
{"smiles": "Nc1ccc(-c2cccs2)cc1NC(=O)c1ccc2c(c1)cc(C1CC1)n2CCN1CCOCC1", "note": "[ACY-1035]", "values": [{"measurement": "Fold change vs veh, RNGTT", "result": 0.96}]}
